System: NCI-H929 complex spheroids, viability % test/control
Test: Anticancer human tumor NCI-H929 cell line growth inhibition [RAS];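 also: compound exposure lasted seven days before viability was read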;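 as to viability, T/C: 100% = DMSO vehicle control viability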
Settings: for IC50: curve of first compound; for viability, T/C: stronger effect = lower value
How it was run: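 Tumour cells grown as complex spheroids with HUVEC endothelial cells and mesenchymal stem cells, treated with RAS pathway inhibitor combinations. Each agent spans half-log steps from near clinical Cmax, or 10 microM where Cmax is unknown.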

[1] = second compound 0.000949 µM, first compound 0.00316 µM
[2] = second compound 0.000949 µM, first compound 0.01 µM
[3] = second compound 0.000949 µM, first compound 0.0316 µM
[4] = second compound 0.000949 µM, first compound 0.1 µM
[5] = second compound 0.003 µM, first compound 0.00316 µM
[6] = second compound 0.003 µM, first compound 0.01 µM
[7] = second compound 0.003 µM, first compound 0.0316 µM
[8] = second compound 0.003 µM, first compound 0.1 µM
[9] = second compound 0.00949 µM, first compound 0.00316 µM
[10] = second compound 0.00949 µM, first compound 0.01 µM
[11] = second compound 0.00949 µM, first compound 0.0316 µM
[12] = second compound 0.00949 µM, first compound 0.1 µM
[13] = second compound 0.03 µM, first compound 0.00316 µM
[14] = second compound 0.03 µM, first compound 0.01 µM
[15] = second compound 0.03 µM, first compound 0.0316 µM
[16] = second compound 0.03 µM, first compound 0.1 µM
[17] = second compound 0.0949 µM, first compound 0.00316 µM
[18] = second compound 0.0949 µM, first compound 0.01 µM
[19] = second compound 0.0949 µM, first compound 0.0316 µM
[20] = second compound 0.0949 µM, first compound 0.1 µM
[21] = second compound 0.3 µM, first compound 0.00316 µM
[22] = second compound 0.3 µM, first compound 0.01 µM
[23] = second compound 0.3 µM, first compound 0.0316 µM
[24] = second compound 0.3 µM, first compound 0.1 µM

## CC(C)n1nc(-c2ccc3oc(N)nc3c2)c2c(N)ncnc21 + CCn1c(-c2cc(N3CCN(C)CC3)cnc2C(C)OC)c2c3cc(ccc31)-c1csc(n1)CC(NC(=O)C1CC1C)C(=O)N1CCCC(N1)C(=O)OCC(C)(C)C2
Second compound 0.000949 µM
  IC50: 55 nM
Second compound 0.003 µM
  IC50: 55 nM
Second compound 0.00949 µM
  IC50: 29.2 nM
Second compound 0.03 µM
  IC50: 2.58 nM
Second compound 0.0949 µM
  IC50: < 0.316 nM
Second compound 0.3 µM
  IC50: < 0.316 nM
Second compound 0.000949 µM, first compound 0.000316 µM
  viability, T/C: 103%
Second compound 0.000949 µM, first compound 0.001 µM
  viability, T/C: 101%
[1]
  viability, T/C: 111%
[2]
  viability, T/C: 110%
[3]
  viability, T/C: 93.2%
[4]
  viability, T/C: 3.1%
Second compound 0.003 µM, first compound 0.000316 µM
  viability, T/C: 97.5%
Second compound 0.003 µM, first compound 0.001 µM
  viability, T/C: 95.7%
[5]
  viability, T/C: 101%
[6]
  viability, T/C: 114%
[7]
  viability, T/C: 93%
[8]
  viability, T/C: 3.74%
Second compound 0.00949 µM, first compound 0.000316 µM
  viability, T/C: 108%
Second compound 0.00949 µM, first compound 0.001 µM
  viability, T/C: 114%
[9]
  viability, T/C: 119%
[10]
  viability, T/C: 120%
[11]
  viability, T/C: 45.1%
[12]
  viability, T/C: 1.87%
Second compound 0.03 µM, first compound 0.000316 µM
  viability, T/C: 74.5%
Second compound 0.03 µM, first compound 0.001 µM
  viability, T/C: 74.2%
[13]
  viability, T/C: 39.7%
[14]
  viability, T/C: 26.1%
[15]
  viability, T/C: 4.36%
[16]
  viability, T/C: 0.46%
Second compound 0.0949 µM, first compound 0.000316 µM
  viability, T/C: 7.99%
Second compound 0.0949 µM, first compound 0.001 µM
  viability, T/C: 7.3%
[17]
  viability, T/C: 2.87%
[18]
  viability, T/C: 1.59%
[19]
  viability, T/C: 0.69%
[20]
  viability, T/C: 0.3%
Second compound 0.3 µM, first compound 0.000316 µM
  viability, T/C: 3.49%
Second compound 0.3 µM, first compound 0.001 µM
  viability, T/C: 2.63%
[21]
  viability, T/C: 1.48%
[22]
  viability, T/C: 0.92%
[23]
  viability, T/C: 0.47%
[24]
  viability, T/C: 0.34%

## Nc1ccn(C2OC(CO)C(O)C2(F)F)c(=O)n1 (centres undefined) + CCn1c(-c2cc(N3CCN(C)CC3)cnc2C(C)OC)c2c3cc(ccc31)-c1csc(n1)CC(NC(=O)C1CC1C)C(=O)N1CCCC(N1)C(=O)OCC(C)(C)C2
Second compound 0.000949 µM
  IC50: 7.3 nM
Second compound 0.003 µM
  IC50: 6.69 nM
Second compound 0.00949 µM
  IC50: 6.61 nM
Second compound 0.03 µM
  IC50: < 3.16 nM
Second compound 0.0949 µM
  IC50: < 3.16 nM
Second compound 0.3 µM
  IC50: < 3.16 nM
[1]
  viability, T/C: 110%
[2]
  viability, T/C: 27.6%
[3]
  viability, T/C: 2.05%
[4]
  viability, T/C: 2.16%
Second compound 0.000949 µM, first compound 0.316 µM
  viability, T/C: 1.6%
Second compound 0.000949 µM, first compound 1 µM
  viability, T/C: 1.6%
[5]
  viability, T/C: 105%
[6]
  viability, T/C: 20.4%
[7]
  viability, T/C: 2.07%
[8]
  viability, T/C: 1.75%
Second compound 0.003 µM, first compound 0.316 µM
  viability, T/C: 1.35%
Second compound 0.003 µM, first compound 1 µM
  viability, T/C: 1.62%
[9]
  viability, T/C: 127%
[10]
  viability, T/C: 6.62%
[11]
  viability, T/C: 1.99%
[12]
  viability, T/C: 2.73%
Second compound 0.00949 µM, first compound 0.316 µM
  viability, T/C: 1.58%
Second compound 0.00949 µM, first compound 1 µM
  viability, T/C: 1.35%
[13]
  viability, T/C: 15.2%
[14]
  viability, T/C: 3.12%
[15]
  viability, T/C: 1.8%
[16]
  viability, T/C: 1.5%
Second compound 0.03 µM, first compound 0.316 µM
  viability, T/C: 1.42%
Second compound 0.03 µM, first compound 1 µM
  viability, T/C: 1.24%
[17]
  viability, T/C: 2.68%
[18]
  viability, T/C: 1.67%
[19]
  viability, T/C: 1.66%
[20]
  viability, T/C: 1.4%
Second compound 0.0949 µM, first compound 0.316 µM
  viability, T/C: 1.18%
Second compound 0.0949 µM, first compound 1 µM
  viability, T/C: 1.05%
[21]
  viability, T/C: 1.41%
[22]
  viability, T/C: 1.1%
[23]
  viability, T/C: 1.1%
[24]
  viability, T/C: 1.32%
Second compound 0.3 µM, first compound 0.316 µM
  viability, T/C: 1.02%
Second compound 0.3 µM, first compound 1 µM
  viability, T/C: 0.86%

From PubChem BioAssay AID2060884 (Molecular Pharmacology Branch, DTP, NCI, 2025)
